In US6365616B1, “Methimazole derivatives and tautomeric cyclic thiones to treat autoimmune diseases” (Sentron Medical, Inc., priority 1998, dated 2002):
Where two headings read alike, the source gives them in different places.

B1: γ-IFN: rat recombinant γ-interferon, 100 U/ml, used to increase MHC class I and class II expression in FRTL-5 cells (protein, UniProt P01581 23-156, looked up)
Interferon gamma: QGTLIESLESLKNYFNSSSMDAMEGKSLLLDIWRNWQKDGNTKILESQIISFYLRLFEVLKDNQAISNNISVIESHLITNFFSNSKAKKDAFMSIAKFEVNNPQIQHKAVNELIRVIHQLSPESSLRKRKRSRC

Key:
[1] = tested on: swine class I promoter (PD1); experiment: Luciferase assay, FRTL-5 cells stably transfected with class I promoter-luciferase chimeras; assay type: cell-based; details: for inhibition at 10 µM / inhibition at 25 µM / inhibition at 100 µM / inhibition at 1000 µM: Sus scrofa
Text: The swine PD1 5′-flanking sequence-CAT chimeras (−1100, −203, and −127), as well as two mutants with the CRE site with −107 to −100 bp deleted (−203ΔCRE and −127ΔCRE) were used to create luciferase reporter gene constructs. The inserts were released by restriction enzyme digestion, purified from agarose gel using QIAEX (QIAGEN, Chatsworth, Calif.) and ligated in the NheI-HindIII site of the PGL-2 basic vector (PROMEGA, Madison, Wis.) using a DNA ligation kit from TAKARA biomedicals (TAKARA SHUZO Co). JM109 bacterial competent cells (PROMEGA, Madison, Wis.) were transformed with the ligation reaction and plated in agar plates for 12 h at 37° C. The colonies were picked and screened with minipreps using QIAprep spin plasmid kit (QIAGEN, Chatsworth, Calif.) and restriction enzyme digestion. The plasmids were then purified by CsCl gradient centrifugation.
The PD1-PGL-2 basic constructs and the Class II-PGL-2 basic constructs were stably transfected in the FRTL-5 cells using a Lipofectamine (GIBCO, Life Technologies, Inc.) method. Near confluent cells in 6H medium were cotransfected with 20 μg of plasmid DNA and 2 μg of a pcDNA3neo or a pPUR selection vector (CLONTECH, Palo Alto, Calif.). After 24-48 hours, 400 μg/ml of G418 (GIBCO, Life Technologies, Inc.) or 10 μM of puromycin (SIGMA) were added to the medium. After 3 weeks the antibiotic-resistant colonies were cloned by limiting dilution and screened to determine their interferon sensitivity. At least 5 cell lines of each construct were isolated, each of whose activity was increased by adding 100 U/ml γ interferon to the medium of the cells. The following data (Tables 10-13) were obtained with one clone of each of the class I or class II-luciferase chimera, but were representative of at least three other clones of each.
Luciferase activity was measured using the Luciferase assay system (PROMEGA, Madison, Wis.). Briefly, treated or untreated cells from a 100 mm culture dish were washed with PBS, scraped and collected in microfuge tubes. The pellet was dissolved in 100 μl 1× reporter lysis buffer and incubated at room temperature for 15 minutes. Cells were frozen in dry ice plus ethanol and thawed in water at room temperature. After vortexing for 10 sec, tubes were centrifuged at 12,000×g for 5 min. Twenty μl of the supernatant were mixed with 100 μl of Luciferase assay reagent and immediately placed in a luminometer. Light was measured for a period of 10 sec after a 2 sec delay.
Treatment of cells, maintained either in the presence of TSH or its absence, with 100 U/ml interferon, increased class I and class II promoter activity (Table 10). In this experiment FRTL-5 cells were grown to 80% confluency in 6H medium with TSH then treated with 100 U/ml γ-interferon, 5 mM MMI or both together. Luciferase activity was measured after 40 hours as described. Several points are notable. First, interferon increases both class I and class II promoter activity in the stable transfectants. Second, MMI inhibits both interferon-increased class I and interferon-increased class II promoter activity.

[2] = tested on: HLA-DRα class II promoter; experiment: Transient transfection CAT assay, HLA-DRα class II promoter chimeras in FRTL-5 cells; assay type: cell-based
Text: Construction of the HLA-DR promoter constructs has also been described as have been their characteristics (Reimold A M, et al., ibid (1993)). Additional CAT constructs were constructed by PCR, using the HLA-DRα-CAT chimera containing −176 to +45 of 5′-flanking region as template and various primers (Montani V. et al., ibid (1998a,b)). For example, a plasmid containing −38 to +45 bp of the 5′-flanking region of HLA-DRα was constructed with the following primers: a 5′ primer with a 5′ Sph I restriction site, 5′-[…]-3′ and a 3′ primer, 5′-[…]-3′, with an Xba I restriction site (Montani V., et al., ibid (1998a,b)). The PCR products were purified by phenol-chloroform extraction, digested with Xba I and Sph I, purified from a 2% agarose gel with Jet Sorb (Genomed, Frederick, Md.), dephosphorylated with calf intestinal alkaline phosphatase (New England Biolabs, Beverly, Mass.), and religated (DNA ligation kit, Takara Biochemical, Inc., Berkeley, Calif.) into the pCAT-Basic Vector (Promega, Madison, Wis.) at the Sph I and Xba I sites as described (Reimold AM, et al., ibid (1993); Montani V., et al., ibid (1998a,b)).
To measure the promoter activity of MHC class II promoter constructs, transient transfections in FRTL-5 cells were performed, using one of the following procedures (Montani V., et al., ibid (1998a, b)). In one, FRTL-5 cells were cultivated in 6H medium to approximately 80% confluency, harvested, washed, and resuspended (1.5×10^7 cells/ml) in 0.85 ml electroporation buffer (272 mM sucrose, 7 mM sodium phosphate buffer pH 7.4, and 1 mM MgCl2). Plasmid DNA was added, 20 μg of the CAT chimera together with 2 μg pRSV-luciferase which is used to measure the efficiency of transfection. Cells were pulsed (330 V; capacitance 25 μfarad), plated (6×10^6 cells/10 cm dish), and cultured in 6H medium plus 5% calf serum supplemented or not with γ-IFN. At the times noted, cells were harvested for CAT and luciferase assays. The second procedure differed as follows. FRTL-5 cells were grown to 80% confluency in 6H medium, then maintained 6 days in 5H medium plus 5% calf serum. Cells were returned to 6H medium for 12 hours, transfected as described above, and maintained in 6H medium plus 5% calf serum for twelve hours. The medium was then changed to fresh 5H medium with 5% calf serum supplemented or not with γ-IFN. […] CAT activity was measured as described above and values were normalized to luciferase activity measured using the Promega (Madison, Wis.) assay system.
To test the effect of MMI, MMI derivatives or tautomeric cyclic thiones on γ-IFN-increased class II expression in FRTL-5 thyroid cells, the following procedure was used. Transient transfections with the −137 bp or −176 bp DRα-CAT chimeras were performed as described and treated with 100 U/ml γ-IFN for the noted times starting 12 hours after transfection. […]
In this experiment, like previous experiments, transient transfections were performed in FRTL-5 cells grown to 80% confluency in 6H medium, maintained 6 days in SH medium, and returned to 6H medium for 12 h before transfection as described. Twelve hours later, the medium was changed to fresh 5H medium, supplemented or not with 100 U/ml γ-IFN and/or 5 mM MMI. CAT activity was measured 48 h thereafter. […] Results are the mean ±SD of 3 separate experiments.

[3] = FRTL-5, 10 μM, 100 U/ml γ-interferon, 6H medium, 40 hours, read-out: % inhibition of IFN-increased p(−203)LUC class I promoter activity
[4] = FRTL-5, 25 μM, 6H medium, 40 hours, read-out: % inhibition of basal p(−203)LUC class I promoter activity
[5] = FRTL-5, 100 μM, 6H medium, 40 hours, read-out: % inhibition of basal p(−203)LUC class I promoter activity
[6] = FRTL-5, 100 μM, 100 U/ml γ-interferon, 6H medium, 40 hours, read-out: % inhibition of IFN-increased p(−203)LUC class I promoter activity
[7] = FRTL-5, 1.0 mM, 6H medium, 40 hours, read-out: % inhibition of basal p(−203)LUC class I promoter activity
[8] = FRTL-5, 1.0 mM, 100 U/ml γ-interferon, 6H medium, 40 hours, read-out: % inhibition of IFN-increased p(−203)LUC class I promoter activity
[9] = FRTL-5, 10 μM, 100 U/ml γ-interferon, 6H medium, read-out: % inhibition of IFN-increased p(−137)CAT class II promoter activity
[10] = FRTL-5, 100 μM, 100 U/ml γ-interferon, 6H medium, read-out: % inhibition of IFN-increased p(−137)CAT class II promoter activity
[11] = FRTL-5, 0.5 mM, 100 U/ml γ-interferon, 6H medium, read-out: % inhibition of IFN-increased p(−137)CAT class II promoter activity
[12] = FRTL-5, 5 mM, 100 U/ml γ-interferon, 6H medium, read-out: % inhibition of IFN-increased p(−137)CAT class II promoter activity
[13] = FRTL-5, read-out: % inhibition of IFN-increased p(−203)LUC class I promoter activity
[14] = FRTL-5, read-out: % inhibition of basal p(−203)LUC class I promoter activity
[15] = FRTL-5, read-out: % inhibition of IFN-increased p(−137)CAT class II promoter activity

Row | Molecule | inhibition at 10 µM [1, 3] | inhibition at 25 µM [1, 4] | inhibition at 100 µM [1, 5] | inhibition at 100 µM [1, 6] | inhibition at 1000 µM [1, 7] | inhibition at 1000 µM [1, 8] | inhibition at 10 µM [2, 9] | inhibition at 100 µM [2, 10] | inhibition at 500 µM [2, 11] | inhibition at 5000 µM [2, 12] | also measured
1 | Cn1ccnc1S [Compound 1, 1-Methylimidazole-2-thiol] | 0% | 0% | 0% | 0% | 0% | 45 ± 10% | 0% | 0% | 44 ± 6% | 87 ± 9% | effect on basal p(−203) class I luciferase activity ([1]; 1 or 5 mM, stable transfectants): no significant effect; Luciferase activity + 5 mM MMI ([1]; Vector-LUC Control, 40 hours): 100 ± 6 % Control; Luciferase activity +γ-IFN + 5 mM MMI ([1]; Vector-LUC Control, 40 hours): 105 ± 5 % Control; Luciferase activity + 5 mM MMI ([1]; p(−127) class I-LUC, 40 hours): 135 ± 17 % Control; Luciferase activity +γ-IFN + 5 mM MMI ([1]; p(−127ΔCRE) class I-LUC, 40 hours): 101 ± 4 % Control; Luciferase activity + 5 mM MMI ([1]; p(−203) class I-LUC, 40 hours): 105 ± 38 % Control; Luciferase activity +γ-IFN + 5 mM MMI ([1]; p(−203ΔCRE) class I-LUC, 40 hours): 106 ± 6 % Control
2 | Cc1ncc([N+](=O)[O-])n1CCO [Compound 2, 2-Methyl-5-nitro-1-imidazole ethanol] | 0% | 0% | 0% | 10 ± 6% | 42 ± 6% | 57 ± 5% | 0% | 0% | 55 ± 10% | 80 ± 4% | 
3 | Sc1ncc[nH]1 [Compound 3, 2-Mercaptoimidazole] |  | 0% | 0% |  | 0% |  |  |  |  |  | % inhibition of IFN-increased p(−137)CAT class II promoter activity ([2]; 10 μM, 100 U/ml γ-interferon, 6H medium): None; % inhibition of IFN-increased p(−137)CAT class II promoter activity ([2]; 100 μM, 100 U/ml γ-interferon, 6H medium): None; % inhibition of IFN-increased p(−137)CAT class II promoter activity ([2]; 0.5 mM, 100 U/ml γ-interferon, 6H medium): None; % inhibition of IFN-increased p(−137)CAT class II promoter activity ([2]; 5 mM, 100 U/ml γ-interferon, 6H medium): None
4 | Sc1nc2ccccc2[nH]1 [Compound 4, 2-Mercaptobenzimidazole] |  |  |  |  |  |  |  |  |  |  | inhibition at 10 µM [1, 13]: 0%; inhibition at 100 µM [1, 13]: 0%; inhibition at 1000 µM [1, 13]: 39 ± 6%; inhibition at 25 µM [1, 14]: 0%; inhibition at 100 µM [1, 14]: 0%; inhibition at 1000 µM [1, 14]: 50 ± 5%; inhibition at 10 µM [2, 15]: 0%; inhibition at 100 µM [2, 15]: 0%; inhibition at 500 µM [2, 15]: 29 ± 12%; inhibition at 5000 µM [2, 15]: 73 ± 14%
5 | O=[N+]([O-])c1ccc2[nH]c(S)nc2c1 [Compound 5, 2-Mercapto-5-nitrobenzimidazole] | 0% | 0% | 0% | 0% | 0% | 9 ± 7% |  |  |  | 39 ± 13% | 
6 | Cc1ccc2[nH]c(S)nc2c1 [Compound 6, 2-Mercapto-5-methylbenzimidazole] |  | 0% | 0% |  | 0% | 19 ± 10% |  |  |  | 44 ± 8% | 
7 | CSc1nccn1C [Compound 7, S-Methylmethimazole] | 0% | 0% | 10 ± 6% | 24 ± 6% | 44 ± 4% | 62 ± 9% | 0% | 20 ± 15% | 75 ± 6% | 84 ± 15% | 
8 | B1 |  |  |  |  |  |  |  |  |  |  | Luciferase activity +γ-IFN ([1]; Vector-LUC Control, 100 U/ml γ-interferon, 40 hours): 102 ± 6 % Control; Luciferase activity +γ-IFN ([1]; p(−127) class I-LUC, 100 U/ml γ-interferon, 40 hours): 180 ± 19 % Control; Luciferase activity +γ-IFN ([1]; p(−127ΔCRE) class I-LUC, 100 U/ml γ-interferon, 40 hours): 92 ± 10 % Control; Luciferase activity +γ-IFN ([1]; p(−203) class I-LUC, 100 U/ml γ-interferon, 40 hours): 495 ± 30 % Control; Luciferase activity +γ-IFN ([1]; p(−203ΔCRE) class I-LUC, 100 U/ml γ-interferon, 40 hours): 139 ± 16 % Control
